In ChEMBL document CHEMBL5625247, “Tetrahydro-β-carboline derivatives as potent histone deacetylase 6 inhibitors with broad-spectrum antiproliferative activity” (Eur J Med Chem, 2023):

Tests used:
[1] = target: Histone deacetylase 1 (Homo sapiens, UniProt Q13547); test: Inhibition of HDAC1 (unknown origin) expressed in baculovirus infected in Sf9 cells using RHKKAc as substrate preincubated for 5 to 10 mins followed by substrate addition measured after 2 hrs by fluorescence based assay
[2] = tested on: RPMI-8226; test: cells; type: functional, cell-based; settings: Homo sapiens; for GI50: RPMI-8226, time 72 hrs
[3] = tested on: CCRF-CEM; test: Antiproliferative activity against human CCRF-CEM cells assessed as cell growth inhibition incubated for 72 hrs by alamar blue dye based assay; type: functional
[4] = tested on: HL-60(TB); test: Antiproliferative activity against human HL-60(TB) cells assessed as cell growth inhibition incubated for 72 hrs by alamar blue dye based assay; type: functional
[5] = tested on: K562; test: Antiproliferative activity against human K562 cells assessed as cell growth inhibition incubated for 72 hrs by alamar blue dye based assay; type: functional
[6] = tested on: MOLT-4; test: Antiproliferative activity against human MOLT-4 cells assessed as cell growth inhibition incubated for 72 hrs by alamar blue dye based assay; type: functional
[7] = tested on: SR; test: Antiproliferative activity against human SR cells assessed as cell growth inhibition incubated for 72 hrs by alamar blue dye based assay; type: functional
[8] = tested on: A549; test: Antiproliferative activity against human A549 cells assessed as cell growth inhibition incubated for 72 hrs by alamar blue dye based assay; type: functional
[9] = tested on: EKVX; test: Antiproliferative activity against human EKVX cells assessed as cell growth inhibition incubated for 72 hrs by alamar blue dye based assay; type: functional
[10] = tested on: HOP-92; test: Antiproliferative activity against human HOP-92 cells assessed as cell growth inhibition incubated for 72 hrs by alamar blue dye based assay; type: functional
[11] = tested on: NCI-H226; test: Antiproliferative activity against human NCI-H226 cells assessed as cell growth inhibition incubated for 72 hrs by alamar blue dye based assay; type: functional
[12] = tested on: NCI-H23; test: Antiproliferative activity against human NCI-H23 cells assessed as cell growth inhibition incubated for 72 hrs by alamar blue dye based assay; type: functional
[13] = tested on: NCI-H322M; test: Antiproliferative activity against human NCI-H322M cells assessed as cell growth inhibition incubated for 72 hrs by alamar blue dye based assay; type: functional
[14] = tested on: NCI-H460; test: Antiproliferative activity against human NCI-H460 cells assessed as cell growth inhibition incubated for 72 hrs by alamar blue dye based assay; type: functional
[15] = tested on: NCI-H522; test: Antiproliferative activity against human NCI-H522 cells assessed as cell growth inhibition incubated for 72 hrs by alamar blue dye based assay; type: functional
[16] = tested on: HCC 2998; test: Antiproliferative activity against human HCC 2998 cells assessed as cell growth inhibition incubated for 72 hrs by alamar blue dye based assay; type: functional
[17] = tested on: KM12; test: Antiproliferative activity against human KM12 cells assessed as cell growth inhibition incubated for 72 hrs by alamar blue dye based assay; type: functional
[18] = tested on: SW-620; test: Antiproliferative activity against human SW620 cells assessed as cell growth inhibition incubated for 72 hrs by alamar blue dye based assay; type: functional
[19] = tested on: SF-268; test: Antiproliferative activity against human SF-268 cells assessed as cell growth inhibition incubated for 72 hrs by alamar blue dye based assay; type: functional
[20] = tested on: SF-295; test: Antiproliferative activity against human SF-295 cells assessed as cell growth inhibition incubated for 72 hrs by alamar blue dye based assay; type: functional
[21] = tested on: SF-539; test: Antiproliferative activity against human SF-539 cells assessed as cell growth inhibition incubated for 72 hrs by alamar blue dye based assay; type: functional
[22] = tested on: SNB-19; test: Antiproliferative activity against human SNB-19 cells assessed as cell growth inhibition incubated for 72 hrs by alamar blue dye based assay; type: functional
[23] = tested on: U-251; test: Antiproliferative activity against human U-251 cells assessed as cell growth inhibition incubated for 72 hrs by alamar blue dye based assay; type: functional
[24] = tested on: LOX IMVI; test: Antiproliferative activity against human LOX IMVI cells assessed as cell growth inhibition incubated for 72 hrs by alamar blue dye based assay; type: functional
[25] = tested on: Malme-3M; test: Antiproliferative activity against human Malme-3M cells assessed as cell growth inhibition incubated for 72 hrs by alamar blue dye based assay; type: functional
[26] = tested on: M14; test: Antiproliferative activity against human M14 cells assessed as cell growth inhibition incubated for 72 hrs by alamar blue dye based assay; type: functional
[27] = tested on: MDA-MB-435; test: Antiproliferative activity against human MDA-MB-435 cells assessed as cell growth inhibition incubated for 72 hrs by alamar blue dye based assay; type: functional
[28] = tested on: SK-MEL-2; test: Antiproliferative activity against human SK-MEL-2 cells assessed as cell growth inhibition incubated for 72 hrs by alamar blue dye based assay; type: functional
[29] = tested on: SK-MEL-28; test: Antiproliferative activity against human SK-MEL-28 cells assessed as cell growth inhibition incubated for 72 hrs by alamar blue dye based assay; type: functional
[30] = tested on: SK-MEL-5; test: Antiproliferative activity against human SK-MEL-5 cells assessed as cell growth inhibition incubated for 72 hrs by alamar blue dye based assay; type: functional
[31] = tested on: UACC-62; test: Antiproliferative activity against human UACC-62 cells assessed as cell growth inhibition incubated for 72 hrs by alamar blue dye based assay; type: functional
[32] = tested on: IGROV-1; test: Antiproliferative activity against human IGROV-1 cells assessed as cell growth inhibition incubated for 72 hrs by alamar blue dye based assay; type: functional
[33] = tested on: OVCAR-3; test: Antiproliferative activity against human OVCAR-3 cells assessed as cell growth inhibition incubated for 72 hrs by alamar blue dye based assay; type: functional
[34] = tested on: 786-0; test: Antiproliferative activity against human 786-0 cells assessed as cell growth inhibition incubated for 72 hrs by alamar blue dye based assay; type: functional
[35] = tested on: A498; test: Antiproliferative activity against human A498 cells assessed as cell growth inhibition incubated for 72 hrs by alamar blue dye based assay; type: functional
[36] = tested on: ACHN; test: Antiproliferative activity against human ACHN cells assessed as cell growth inhibition incubated for 72 hrs by alamar blue dye based assay; type: functional
[37] = tested on: SN12C; test: Antiproliferative activity against human SN12C cells assessed as cell growth inhibition incubated for 72 hrs by alamar blue dye based assay; type: functional
[38] = tested on: UO-31; test: Antiproliferative activity against human UO-31 cells assessed as cell growth inhibition incubated for 72 hrs by alamar blue dye based assay; type: functional
[39] = tested on: PC-3; test: Antiproliferative activity against human PC-3 cells assessed as cell growth inhibition incubated for 72 hrs by alamar blue dye based assay; type: functional
[40] = tested on: DU-145; test: Antiproliferative activity against human DU-145 cells assessed as cell growth inhibition incubated for 72 hrs by alamar blue dye based assay; type: functional
[41] = tested on: MCF7; test: Antiproliferative activity against human MCF7 cells assessed as cell growth inhibition incubated for 72 hrs by alamar blue dye based assay; type: functional
[42] = tested on: MDA-MB-231; test: Antiproliferative activity against human MDA-MB-231 cells assessed as cell growth inhibition incubated for 72 hrs by alamar blue dye based assay; type: functional
[43] = tested on: Hs-578T; test: Antiproliferative activity against human Hs-578T cells assessed as cell growth inhibition incubated for 72 hrs by alamar blue dye based assay; type: functional
[44] = tested on: BT-549; test: Antiproliferative activity against human BT-549 cells assessed as cell growth inhibition incubated for 72 hrs by alamar blue dye based assay; type: functional
[45] = tested on: T47D; test: Antiproliferative activity against human T47D cells assessed as cell growth inhibition incubated for 72 hrs by alamar blue dye based assay; type: functional
[46] = tested on: MDA-MB-468; test: Antiproliferative activity against human MDA-MB-468 cells assessed as cell growth inhibition incubated for 72 hrs by alamar blue dye based assay; type: functional

Histone deacetylase 1, sequence (Q13547 whole entry): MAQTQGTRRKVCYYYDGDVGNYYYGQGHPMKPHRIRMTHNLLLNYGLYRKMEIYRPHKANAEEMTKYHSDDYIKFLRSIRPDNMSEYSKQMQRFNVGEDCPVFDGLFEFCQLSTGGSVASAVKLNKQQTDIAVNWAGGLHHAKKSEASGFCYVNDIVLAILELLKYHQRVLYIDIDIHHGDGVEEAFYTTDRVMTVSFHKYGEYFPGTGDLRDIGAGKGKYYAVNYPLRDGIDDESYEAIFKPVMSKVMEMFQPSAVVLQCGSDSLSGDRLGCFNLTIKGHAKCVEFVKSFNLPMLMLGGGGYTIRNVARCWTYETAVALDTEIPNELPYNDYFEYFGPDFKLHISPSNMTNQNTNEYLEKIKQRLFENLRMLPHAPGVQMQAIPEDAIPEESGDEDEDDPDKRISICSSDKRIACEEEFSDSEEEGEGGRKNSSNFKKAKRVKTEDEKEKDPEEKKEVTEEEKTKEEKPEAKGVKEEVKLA

## COc1ccc(CN2[C@@H](C(=O)NCc3ccc(C(=O)NO)cc3)Cc3c([nH]c4ccccc34)[C@@H]2C2CC2)cc1
[1]
  IC50: 0.171 µM
[2]
  GI50: 2.92 µM
[3]
  GI50: 0.996 µM
[4]
  GI50: 2.73 µM
[5]
  GI50: 1.67 µM
[6]
  GI50: 1.85 µM
[7]
  GI50: > 19.8 µM
[8]
  GI50: 3.54 µM
[9]
  GI50: 3.2 µM
[10]
  GI50: 2.62 µM
[11]
  GI50: 3.41 µM
[12]
  GI50: 2.75 µM
[13]
  GI50: 4.25 µM
[14]
  GI50: 3.14 µM
[15]
  GI50: 0.965 µM
[16]
  GI50: 2.6 µM
[17]
  GI50: 3.51 µM
[18]
  GI50: 2.26 µM
[19]
  GI50: 4.4 µM
[20]
  GI50: 2.92 µM
[21]
  GI50: 2.48 µM
[22]
  GI50: 2.89 µM
[23]
  GI50: 2.66 µM
[24]
  GI50: 2.37 µM
[25]
  GI50: 0.847 µM
[26]
  GI50: 4.07 µM
[27]
  GI50: 0.638 µM
[28]
  GI50: 4.11 µM
[29]
  GI50: 1.98 µM
[30]
  GI50: 2.6 µM
[31]
  GI50: 1.55 µM
[32]
  GI50: 2.6 µM
[33]
  GI50: 3.41 µM
[34]
  GI50: 3.98 µM
[35]
  GI50: 2.77 µM
[36]
  GI50: 3.52 µM
[37]
  GI50: 3.86 µM
[38]
  GI50: 3 µM
[39]
  GI50: 3.12 µM
[40]
  GI50: 4.38 µM
[41]
  GI50: 2.33 µM
[42]
  GI50: 2.43 µM
[43]
  GI50: 1.85 µM
[44]
  GI50: 4.99 µM
[45]
  GI50: 3.82 µM
[46]
  GI50: 1 µM

## O=C(NO)c1ccc(CNC(=O)[C@H]2Cc3c([nH]c4ccccc34)[C@H](c3ccc(Cl)cc3)N2)cc1
[1]
  IC50: 0.0616 µM
[2]; RPMI-8226, 72 h
  IC50: 0.62 µM
[2]
  GI50: 0.564 µM
[3]
  GI50: 0.617 µM
[4]
  GI50: 0.706 µM
[5]
  GI50: 0.72 µM
[6]
  GI50: 0.563 µM
[7]
  GI50: 1.15 µM
[8]
  GI50: 3.97 µM
[9]
  GI50: 2.65 µM
[10]
  GI50: 0.93 µM
[11]
  GI50: 2.27 µM
[12]
  GI50: 1.33 µM
[13]
  GI50: 1.62 µM
[14]
  GI50: 1.02 µM
[15]
  GI50: 0.584 µM
[16]
  GI50: 0.605 µM
[17]
  GI50: 2.36 µM
[18]
  GI50: 0.687 µM
[19]
  GI50: 2.92 µM
[20]
  GI50: 1.81 µM
[21]
  GI50: 1.14 µM
[22]
  GI50: 2.26 µM
[23]
  GI50: 1.21 µM
[24]
  GI50: 1.09 µM
[25]
  GI50: 0.41 µM
[26]
  GI50: 2.2 µM
[27]
  GI50: 0.959 µM
[28]
  GI50: 2.77 µM
[29]
  GI50: 0.878 µM
[30]
  GI50: 0.721 µM
[31]
  GI50: 0.538 µM
[32]
  GI50: 1.2 µM
[33]
  GI50: 1.23 µM
[34]
  GI50: 3.71 µM
[35]
  GI50: 2.06 µM
[36]
  GI50: 3.05 µM
[37]
  GI50: 2.41 µM
[38]
  GI50: 2.64 µM
[39]
  GI50: 1.76 µM
[40]
  GI50: 1.08 µM
[41]
  GI50: 0.874 µM
[42]
  GI50: 0.887 µM
[43]
  GI50: 1.01 µM
[44]
  GI50: 4.93 µM
[45]
  GI50: 0.6 µM
[46]
  GI50: 0.38 µM
